Laboratory results: patent publication US6872713B1, “Antiprotozoal saponins” (Janssen Pharmaceutica N.V., priority 1999, dated 2005)
In brackets after ≈: the same amount, converted by molar mass. One block for each compound: values may come before it.

Assays:
L. donovani [1] = assay: In vitro antileishmanial activity in primary mouse macrophages, L. donovani; format: cell-based; conditions: Leishmania donovani, Macrophage, L. donovani (visceral)
Description: (§1) Methods for the in vitro growth of Leishmania organisms and screening methodology are well documented in the international literature. Testing protocols are flexible and may be adapted according to the specific objectives and the characteristics of the test compounds. Briefly, the following in vitro methodology has been used: Primary peritoneal macrophages derived from laboratory rodents or macrophage cell lines were seeded in multiwell tissue culture vessels and allowed to attach for about 24 hours. Amastigotes of the Leishmania species (obtained from target tissues of an infected donor animal or from amastigote-infected tissue cultures) or promastigotes of the Leishmania species were added at an appropriate infection ratio together with varying serially diluted concentrations of the drug or test compound. […] Treatment of uninfected control cultures was also included in order to determine a selectivity index. Reference drug treated cultures were included as well so as to determine the relative potency of the test drug. Drug activity was determined in stained preparations as the percentage reduction of the total parasite load or the number of infected macrophages compared to the untreated control cultures.

L. infantum = assay: In vitro antileishmanial activity in macrophages, L. infantum; format: cell-based; conditions: Leishmania infantum, Macrophage; L. infantum (visceral), primary mouse macrophages
Description: as §1

L. mexicana [2] = assay: In vitro antileishmanial activity in primary mouse macrophages, L. mexicana; format: cell-based; conditions: Leishmania mexicana, Macrophage, L. mexicana (cutaneous)
Description: as §1

L. major [3] = assay: In vitro antileishmanial activity in primary mouse macrophages, L. major; format: cell-based; conditions: Leishmania major, Macrophage, L. major (cutaneous)
Description: as §1

L. mexicana [4] = assay: In vivo skin lesion model, L. mexicana (prophylactic and curative); set-up: species or system mice and hamsters; conditions: L. mexicana proph., 10 mg/kg
Description: (§2) Methods for in vivo maintenance of Leishmania organisms and animals models are well documented in the international literature. Balb-C mice and golden hamsters are the preferred laboratory animal species for primary isolation, maintenance and use in artificial infection models. Testing protocols are flexible and may be adapted according to the specific objectives and characteristics of the test compounds. Briefly, the following in vivo methodologies have been used:
(§3) For cutaneous and mucocutaneous Leishmania species:Balb-C mice or young hamsters were infected intradermally or subcutaneously with about 10^6 to 10^7 amastigotes derived from the target organs (generally skin lesion) of an infected donor animal or from an in vitro culture of parasite forms. The animals were treated with the test compound at different dose levels (mg/kg in 100% DMSO or any other acceptable vehicle), using different routes of administration and treatment schedules. Initiation of treatment was either before infection (prophylactically) or at different times after infection (curatively). In the prophylactic study design, the first administration of the test drug is given immediately before or together with the artificial infection with the Leishmania species. In the curative study design, the first administration of the test drug is given several weeks after the artificial infection with the Leishmania species (early curative=when the first dermal lesions appear; late curative=when dermal lesions are well established or become chronic). Drug activity was evaluated either by determination of the severity of the lesion in the relevant target tissue/organ (primary parameter) or of the parasite burdens in the relevant target tissue/organ (secondary parameter), compared to untreated control animals. The lesion size was assessed quantitatively using the method of J. El-On. and A. D. Hamburger [Trans. Roy. Soc. Trop. Med. Hyg., 81, 734-737 (1987)]. The percentage reduction serves as an indication for antileishmanial activity and provides significant leads for clinically useful agents. The lowest active dose (LAD) is defined as the lowest dose which prevents lesions to develop, stops further evolution of the lesions or induces a clinical cure of the lesions in the primary target organ or tissue.

L. major [5] = assay: In vivo skin lesion model, L. major (prophylactic and curative); set-up: species or system mice and hamsters; conditions: L. major proph., 10 mg/kg
Description: as §2, §3

L. panamensis [6] = assay: In vivo skin lesion model, L. panamensis (prophylactic and curative); set-up: species or system mice and hamsters; conditions: L. panamensis proph., 10 mg/kg
Description: as §2, §3

L. donovani [7] = assay: Lowest active dose regimen in Balb-C mice, L. donovani; format: in vivo; conditions: no regimen given
Description: as §2
For visceral Leishmania species: Balb-C mice or young hamsters were intravenously infected with about 10^6 to 10^7 amastigotes derived from the target organs (generally spleen) of an infected donor animal or from an in vitro culture of parasite forms. The animals were treated with the test compound at different dose levels (dose range: 0.1 to 80 mg/kg in 100% DMSO or any other acceptable vehicle), using different routes of administration and treatment schedules. Initiation of treatment was either at different times after infection (curatively), concomitant with infection (prophylactically) or before infection (residual activity). In the prophylactic study design, the first administration of the test drug is given immediately before or together with the artificial infection with the Leishmania species. In the curative study design, the first administration of the test drug is given several weeks after the artificial infection with the Leishmania species (early curative=when the first clinical signs appear; late curative=when the clinical symptoms are well established or become chronic). Drug activity was evaluated by determination of the total parasite burdens in the liver or any other relevant target tissue/organ, compared to the tissue/organ burdens in untreated control animals. The mean number of amastigotes is enumerated quantitatively or semi-quantitatively on stained impression smears or slides. The percentage reduction serves as an indication for antileishmanial activity and provides significant leads for clinically useful agents. […]

L mexicana = assay: Lowest active dose regimen in Balb-C mice, L mexicana; format: in vivo; conditions: L mexicana prophylactic; no regimen given
Description: as §2
(§4) For cutaneous and mucocutaneous Leishmania species:Balb-C mice or young hamsters were infected intradermally or subcutaneously with about 10^6 to 10^7 amastigotes derived from the target organs (generally skin lesion) of an infected donor animal or from an in vitro culture of parasite forms. The animals were treated with the test compound at different dose levels (mg/kg in 100% DMSO or any other acceptable vehicle), using different routes of administration and treatment schedules. […] Drug activity was evaluated either by determination of the severity of the lesion in the relevant target tissue/organ (primary parameter) or of the parasite burdens in the relevant target tissue/organ (secondary parameter), compared to untreated control animals. The lesion size was assessed quantitatively using the method of J. El-On. and A. D. Hamburger [Trans. […]

L. panamensis [8] = assay: Lowest active dose regimen in Balb-C mice, L. panamensis; format: in vivo; conditions: L. panamensis prophylactic; no regimen given
Description: as §2, §4

L. major [9] = assay: Lowest active dose regimen in Balb-C mice, L. major; format: in vivo; conditions: L. major prophylactic; no regimen given
Description: as §2, §4

SMILES: C[C@@H]1[C@H](O)[C@@H](C)/C=C/C=C/C=C/C=C/C=C/C=C/C=C/[C@H](O[C@@H]2O[C@H](C)[C@@H](O)[C@H](N)[C@@H]2O)C[C@@H]2O[C@](O)(C[C@@H](O)C[C@@H](O)[C@H](O)CC[C@@H](O)C[C@@H](O)CC(=O)O[C@H]1C)C[C@H](O)[C@H]2C(=O)O [Ampho-B, amphothericin-B]
EC50 (L. donovani [1]): 0.1 µg/mL (≈ 0.108 µM) | EC50 (L. infantum): 0.1 µg/mL (≈ 0.108 µM) | EC50 (L. mexicana [2]): 0.1 µg/mL (≈ 0.108 µM) | EC50 (L. major [3]): 0.2 µg/mL (≈ 0.216 µM) | skin lesion size (L. mexicana [4]; week 0 post infection): 0 mm^2 | skin lesion size (L. mexicana [4]; week 1 post infection): 0 mm^2 | skin lesion size (L. mexicana [4]; week 2 post infection): 0 mm^2 | skin lesion size (L. mexicana [4]; week 3 post infection): 0 mm^2 | skin lesion size (L. mexicana [4]; week 4 post infection): 0 mm^2 | skin lesion size (L. mexicana [4]; week 5 post infection): 1 mm^2 | skin lesion size (L. mexicana [4]; week 6 post infection): 2 mm^2 | skin lesion size (L. mexicana [4]; week 7 post infection): 7 mm^2 | skin lesion size (L. mexicana [4]; week 8 post infection): 13 mm^2 | skin lesion size (L. mexicana [4]; week 9 post infection): 34 mm^2 | skin lesion size (L. mexicana [4]; week 10 post infection): 85 mm^2 | skin lesion size (L. mexicana [4]; week 11 post infection): 101 mm^2 | skin lesion size (L. mexicana [4]; week 12 post infection): 112 mm^2 | skin lesion size (L. major [5]; week 0 post infection): 0 mm^2 | skin lesion size (L. major [5]; week 1 post infection): 0 mm^2 | skin lesion size (L. major [5]; week 2 post infection): 1 mm^2 | skin lesion size (L. major [5]; week 3 post infection): 1 mm^2 | skin lesion size (L. major [5]; week 4 post infection): 12 mm^2 | skin lesion size (L. major [5]; week 5 post infection): 31 mm^2 | skin lesion size (L. major [5]; week 6 post infection): 41 mm^2 | skin lesion size (L. major [5]; week 7 post infection): 57 mm^2 | skin lesion size (L. major [5]; week 8 post infection): 95 mm^2 | skin lesion size (L. panamensis [6]; week 0 post infection): 0 mm^2 | skin lesion size (L. panamensis [6]; week 1 post infection): 0 mm^2 | skin lesion size (L. panamensis [6]; week 2 post infection): 0 mm^2 | skin lesion size (L. panamensis [6]; week 3 post infection): 0 mm^2 | skin lesion size (L. panamensis [6]; week 4 post infection): 1 mm^2 | skin lesion size (L. panamensis [6]; week 5 post infection): 9 mm^2 | skin lesion size (L. panamensis [6]; week 6 post infection): 15 mm^2 | skin lesion size (L. panamensis [6]; week 7 post infection): 30 mm^2 | skin lesion size (L. panamensis [6]; week 8 post infection): 30 mm^2 | skin lesion size (L. panamensis [6]; week 9 post infection): 42 mm^2 | skin lesion size (L. panamensis [6]; week 10 post infection): 42 mm^2 | skin lesion size (L. panamensis [6]; week 11 post infection): 43 mm^2 | skin lesion size (L. panamensis [6]; week 12 post infection): 39 mm^2 | Lowest active dose (LAD) regimen (L. donovani [7]; L. donovani curative early): not effective | Lowest active dose (LAD) regimen (L. donovani [7]; L. donovani prophylactic): not effective | residual activity (L. donovani [7]; L. donovani): not effective | Lowest active dose (LAD) regimen (L mexicana): not effective | Lowest active dose (LAD) regimen (L. panamensis [8]): not effective | Lowest active dose (LAD) regimen (L. major [9]): not effective

EC50 (L. donovani [1]): > 12.5 µg/mL | EC50 (L. infantum): > 12.5 µg/mL
SMILES: CCC(C)n1ncn(-c2ccc(N3CCN(c4ccc(OCC5COC(Cn6cncn6)(c6ccc(Cl)cc6Cl)O5)cc4)CC3)cc2)c1=O (centres unmarked) [itraconazole]
